From patent publication US20060084790A1, “P-Rex1, a ptdins (3,4,5) p3-g-beta-gamma-regulated guanine-nucleotide exchange factor for rac” (The Babraham Institute, priority 2002, published 2006)
One block for each compound: values may come before it.

What was measured:
P-Rex1 = test: Surface plasmon resonance (Biacore) binding of P-Rex1 to phospholipid vesicles; set-up: species or system human; conditions: 6 mol-% phosphoinositide; 100 nM P-Rex1; FIG. 5C
Procedure: Assays were conducted as described (Ellson et al. 2001), using mixed phospholipid vesicles (PtdCho, PtdS, phosphatidylethanolamine (PtdE), 330 μM each final concentration) with or without added phosphoinositides (6 mol-% final concentration) to load the L1 vesicle capture chip (Biacore) prior to the injection of 100 nM purified recombinant Sf9-cell derived P-Rex1.

recombinant human P-Rex1 = biological target: T1, recombinant human P-Rex1 (Homo sapiens, UniProt Q8TCU6, A1118T/K1340E); test: Rac-GEF assay for recombinant P-Rex1 ([35S]-GTPγS loading of EE-Rac1, liposomes); assay type: biochemical
T1 construct: made in house; host or cells: Sf9 cells (baculovirus, pAc0G1 vector)
T1 sequence (Q8TCU6 whole entry A1118T/K1340E): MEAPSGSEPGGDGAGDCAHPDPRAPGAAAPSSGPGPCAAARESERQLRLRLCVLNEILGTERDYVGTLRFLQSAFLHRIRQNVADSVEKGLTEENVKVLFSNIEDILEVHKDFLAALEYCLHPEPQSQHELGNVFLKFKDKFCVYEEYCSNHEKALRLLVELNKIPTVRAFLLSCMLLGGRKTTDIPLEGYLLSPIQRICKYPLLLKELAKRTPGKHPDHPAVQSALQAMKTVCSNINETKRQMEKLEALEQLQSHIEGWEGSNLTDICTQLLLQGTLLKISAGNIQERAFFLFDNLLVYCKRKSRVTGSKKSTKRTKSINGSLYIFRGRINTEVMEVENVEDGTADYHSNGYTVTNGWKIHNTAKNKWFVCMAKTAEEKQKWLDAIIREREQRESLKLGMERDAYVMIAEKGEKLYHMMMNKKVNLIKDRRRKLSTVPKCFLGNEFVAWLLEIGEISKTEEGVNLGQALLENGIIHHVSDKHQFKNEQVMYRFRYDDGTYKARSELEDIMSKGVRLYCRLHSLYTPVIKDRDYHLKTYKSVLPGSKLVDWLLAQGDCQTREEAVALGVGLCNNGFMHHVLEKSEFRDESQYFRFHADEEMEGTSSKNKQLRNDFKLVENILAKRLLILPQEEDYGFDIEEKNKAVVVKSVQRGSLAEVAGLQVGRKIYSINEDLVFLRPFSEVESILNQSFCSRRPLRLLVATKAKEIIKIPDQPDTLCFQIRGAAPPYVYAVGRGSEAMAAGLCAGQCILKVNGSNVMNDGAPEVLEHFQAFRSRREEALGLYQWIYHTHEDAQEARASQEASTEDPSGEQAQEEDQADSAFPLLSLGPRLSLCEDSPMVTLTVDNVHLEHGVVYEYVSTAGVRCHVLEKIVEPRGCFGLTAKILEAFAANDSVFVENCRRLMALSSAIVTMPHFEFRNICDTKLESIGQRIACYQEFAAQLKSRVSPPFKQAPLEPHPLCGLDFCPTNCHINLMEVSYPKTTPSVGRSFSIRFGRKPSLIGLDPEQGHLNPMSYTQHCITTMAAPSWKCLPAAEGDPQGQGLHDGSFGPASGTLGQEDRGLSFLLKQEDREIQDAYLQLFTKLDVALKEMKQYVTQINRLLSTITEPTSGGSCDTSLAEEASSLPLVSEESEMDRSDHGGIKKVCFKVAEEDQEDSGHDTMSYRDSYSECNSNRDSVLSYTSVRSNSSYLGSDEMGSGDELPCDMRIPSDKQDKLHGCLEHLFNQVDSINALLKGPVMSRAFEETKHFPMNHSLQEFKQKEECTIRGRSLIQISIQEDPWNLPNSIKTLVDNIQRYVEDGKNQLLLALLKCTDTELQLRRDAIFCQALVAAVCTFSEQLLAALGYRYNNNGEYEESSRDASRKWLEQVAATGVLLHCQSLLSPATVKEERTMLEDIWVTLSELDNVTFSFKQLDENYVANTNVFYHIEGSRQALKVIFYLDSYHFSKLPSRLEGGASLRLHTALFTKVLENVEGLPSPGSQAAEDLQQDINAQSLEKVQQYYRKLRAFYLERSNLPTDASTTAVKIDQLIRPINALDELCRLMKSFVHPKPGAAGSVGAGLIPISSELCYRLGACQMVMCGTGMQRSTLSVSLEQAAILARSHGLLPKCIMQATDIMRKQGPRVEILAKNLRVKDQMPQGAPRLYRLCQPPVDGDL
Procedure: Liposomes (phosphatidylcholine (PtdCho), phosphatidylserine (PtdS), phosphatidylinositol (PtdIns), final assay concentration 200 μM each) were sonicated in lipid buffer (20 mM Hepes/NaOH pH 7.5 (4° C.), 100 mM NaCl, 1 mM EGTA) with or without PtdIns(3,4,5)P3 (final assay concentration 10 μM) and incubated for 10 min on ice with 2 μl of purified, GDP-loaded, recombinant, lipid-modified EE-Rac1 in 5 mM MgCl2, 50 mg/ml BSA, 5 mM DTT, 20 mM Hepes/NaOH pH 7.5 (4° C.), 100 mM NaCl, 1 mM EGTA (final assay concentration 100 nM EE-Rac1, 0.0024% cholate). Then 4 μl of Rac-GEF activity (cytosol, column fractions, or recombinant P-Rex1) was added, followed by 2 μl of GTPγS (in lipid buffer, final assay concentration 5 μM, including 1 μCi [^35S]-GTPγS). After 10 min at 30° C., the reaction was stopped and EE-Rac1 pulled down using anti-EE antibodies coupled to protein G-sepharose, and [^35S]-GTPγS-loading of Rac was detected by scintillation β-counting. Recombinant P-Rex1 was diluted in ‘buffer A’ (20 mM Hepes/NaOH pH 7.5 (4° C.), 1% betaine, 0.01% Na azide, 0.5 mM EGTA, 200 mM KCl, 10% ethylene glycol) to a final assay concentration of 50 nM. In assays with Gβγ, 2 μl of Gβγ in ‘buffer A’ were added to the liposome/Rac mix before the 10 min on ice, and P-Rex1 was added as 5×.

EE-Rac1 = test: Rac-GEF assay with neutrophil cytosol and membrane fractions; assay type: biochemical; conditions: PtdIns(3,4,5)P3 alone (30 μM); FIG. 1C
Procedure: This assay was essentially as for ROS production, except pure, lipid-modified EE-Rac1 (30-50 nM final concentration) was added to the cytosol, and GTP, GTPγS, NADPH, FAD and luminol omitted. Three min after mixing membrane and cytosol fractions, [α^32P]-GTP (20 μCi per sample) was added. Four min later, the reaction was stopped and EE-Rac1 pulled down using anti-EE antibody coupled to protein G sepharose. The total dpm on EE-Rac1 were quantified by scintillation counting (blanks without EE-Rac1 were subtracted).

[1] = test system: neutrophil cytosol and low-density membranes (ROS formation); test: ROS formation assay with neutrophil cytosol and membrane fractions; assay type: biochemical, pig; conditions: added as liposomes, biological diastereoisomer; FIG. 1B
Procedure: Neutrophil-enriched leukocytes were isolated from pigs' blood, sonicated in 0.25 M sucrose, 0.1 M KCl, 50 mM Hepes/NaOH pH 7.2 (4° C.), 1 mM DTT, 2 mM EGTA, 0.1 mM PMSF and 1× antiproteases (20 μg/ml of each antipain, aprotinin, pepstatin and leupetin) and centrifuged (100,000×g, 1 h, 4° C.) to yield cytosol and light membrane fractions (4.5 mg/ml protein, collected between 0.60 and 1.35 M sucrose and washed in sonication buffer). Light membranes (3 μl) were pre-mixed with Gβγ subunits, p101/p110γ-PI3K and/or N17-Rac (or boiled controls) in 6 μl containing 5 mM ATP, 8 mM MgCl2, 20 mM Hepes/NaOH pH 7.5 (4° C.), 2 mM EGTA, 10 mM β-glycerophosphate, 0.1 mM ortho-vanadate, 0.1 M KCl, 1 mM DTT, 0.01% (w/v) Na azide. After 25 min on ice, 20 μl was added containing 15 μl cytosol and 1 mM MgGTP, 20 μM FAD, 400 μM NADPH and 200 μM luminol. After 8 min at RT, single photon counts (SPC) per 0.1 min were quantitated in a scintillation counter at intervals of 3-5 min for up to 20 min (blanks without cytosol were subtracted). When lipids were added, they were preincubated with the membranes, and 10 μM GTPγS replaced MgGTP. Where wortmannin was added, it was preincubated with both cytosol and membrane fractions for 15 min on ice. Where EE-Rac1 was added, it was preloaded with different guanine nucleotides at a 5-fold excess over bound GDP.

PAE cells = test: Immunofluorescence microscopy of lamellipodia formation in myc-P-Rex1 transfected PAE cells; assay type: cell-based, pig
Procedure: Pig aortic endothelial (PAE) cells were transiently transfected with pCMV3-myc-P-Rex1 or pCMV3-myc-DAPP1 by electroporation, grown on coverslips for 10 h and then serum starved for 8 h. They were then treated or not with 100 nM wortmannin for 10 min followed by stimulation with varying doses of PDGF for 5 min. Cells were fixed and prepared for immunofluorescence microscopy by staining of P-Rex1 and DAPP1 with anti-myc epitope-tag primary and FITC-goat anti-mouse secondary antibodies and filamentuous actin with TRITC-phalloidin as previously described (Welch et al. 1998).

[2] = Inositol polyphosphate 4-phosphatase (lipid phosphatase) assay; assay type: biochemical; conditions: P-Rex1 up to 1.45 μM
[3] = Protein phosphatase assay with para-nitrophenolphosphate; assay type: biochemical; conditions: P-Rex1 up to 192 nM
Text: We also used para-nitrophenolphosphate as a broad-spectrum substrate in a protein phosphatase assay, using calf intestinal alkaline phosphatase and MEG-2 tyrosine phosphatase as controls.

P-Rex1, sequence (Q8TCU6 whole entry A1118T/K1340E): as above

Compound: PtdIns5P
P-Rex1 binding to phospholipid vesicles containing the phosphoinositide (P-Rex1): only weakly

Compound: PtdIns(4,5)P2
P-Rex1 binding to phospholipid vesicles containing the phosphoinositide (P-Rex1): only weakly

Compound: PtdIns3P
P-Rex1 binding to phospholipid vesicles containing the phosphoinositide (P-Rex1): only weakly

Compound: PtdIns4P
P-Rex1 binding to phospholipid vesicles containing the phosphoinositide (P-Rex1): only weakly

Compound: PDGF
P-Rex1-positive cells exhibiting the V12-Rac-like phenotype (PAE cells; PDGF-stimulation for 5 min): 80%

Compound: P-Rex1: novel 185 kD PtdIns(3,4,5)P3- and Gβγ-regulated guanine-nucleotide exchange factor for Rac (SEQ ID NO:1)
myc-positive cells with strongly exaggerated lamellipodia ('fried eggs', V12-Rac-like phenotype) (PAE cells; serum-starved, unstimulated cells transiently expressing myc-P-Rex1): around 30%
lipid phosphatase activity [2]: no lipid or protein phosphatase activity
protein phosphatase activity [3]: no lipid or protein phosphatase activity

Further lines, with some results ahead:

activation of P-Rex1 Rac-GEF activity by phosphoinositide (recombinant human P-Rex1; phosphoinositides compared at 10 μM, FIG. 5B): weak activation
Compound: PtdIns(3,4)P2

P-Rex1 binding to phospholipid vesicles containing the phosphoinositide (P-Rex1): substantially augmented
EC50 (recombinant human P-Rex1; liposomes with PtdIns(3,4,5)P3 dose response, EE-Rac1, FIG. 5A, read-out: 50% maximal effect on Rac-GEF activity of P-Rex1): 300 nM
Compound: phosphatidylinositol(3,4,5)P3 [PtdIns(3,4,5)P3]
activation of Rac1 (EE-Rac1): stimulated activation
activation of ROS formation [1]: potently activate

effect on P-Rex1 Rac-GEF activity in vitro (recombinant human P-Rex1; FIG. 5D, 5E): strongly inhibits
Compound: C[C@H](CCC(=O)O)[C@H]1CC[C@H]2[C@@H]3[C@H](O)C[C@@H]4C[C@H](O)CC[C@]4(C)[C@H]3C[C@H](O)[C@]12C [cholate]

P-Rex1 binding to phospholipid vesicles containing the phosphoinositide (P-Rex1): only weakly
Compound: PtdIns(3,5)P2
